Here are results for four compounds from US20220326255A1, “METHODS OF MONITORING MUCOSAL HEALING” (MediBeacon Inc., priority 2021, published 2022).

A short description of data set [1]: Cumulative urinary percent recovery of enterally administered tracer, crossover study in healthy adults and adults with Crohn's disease. Format: in vivo, human. Conditions: for percent of administered dose recovered in urine: Crohn's disease patients. The procedure: (§1) A single center, randomized, open label, crossover study was performed to evaluate a solution containing 18.6 mg/mL of a pyrazine derived fluorophore (MB-102) at 1.5 or 3.0 mg/kg versus DSAT (L, 1000 mg and R, 200 mg) administered enterally.
(§2) To compare the dynamic ranges of the fluorophore and DSAT clearances, healthy adults and adults with evidence of small bowel Crohn's disease on magnetic resonance enterography were enrolled. Participants were randomized to receive either the fluorophore tracer or the sugars on treatment day 1, followed by the other tracer 3-7 days later. Urine was collected at baseline and 1, 2, 4, 6, 8, 10, and 12 hours after tracer ingestion. The cumulative urinary percent recovery of the fluorophore tracer was calculated using an Ultra-Performance Liquid Chromatography system with fluorescence detection and cumulative L, R, and L:R ratios using a normal phase, isocratic HPLC-tandem ESI mass spectrometry.

The test system of data set [2] is rat model of small bowel injury. Briefly: Percent of administered dose of MB-102 recovered in urine, rat model of small bowel injury. Conditions: rats with bowel injury compared to controls; oral gavage. It counts as in vivo. The procedure: (§3) To this end, MB-102 was tested in the rat model of small bowel injury (FIGS. 4A and 4B). Transdermal measurements were initiated prior to oral gavage of MB-102 and transdermal measurements, alongside urine, were collected over time. Based on urine samples the Percent of Administered Dose Recovered was higher in rats with bowel injury than controls (FIG. 4A).

Data set [3] can be described thus: MB-102 plasma concentration (HPLC) after oral dose in healthy and Crohn's disease participants. It counts as in vivo, human. The conditions noted are these: for concentration at 360 min / concentration at 720 min: human, plasma, po. How it is done:
In addition, two healthy participants and one participant with Crohn's disease were administered an oral dose of MB-102, and blood samples were collected at 6 and 12 hours post-administration. MB-102 plasma concentration levels were determined by HPLC.

A short description of data set [4]: Safety and tolerability of orally administered MB-102 in the human study. Format: in vivo. The procedure: as §1, §2
5 healthy adults and 4 adults with Crohn's disease completed the study without serious adverse events. […] At 12 hours post-dose in the healthy participants, approximately 0.5% to 1.0% of the administered dose was recovered, reflecting the inability of MB-102 to transverse the intestinal barrier when gut permeability is normal. […]

The test system of data set [5] is rat model of bowel injury. Briefly: Transdermal fluorescence detection of fluorophore after oral gavage, rat model of bowel injury. The conditions noted are these: monitored continuously. It counts as in vivo.
Text: To probe the ability to assess gut function in a specimen-free and real-time manner, a dual-wavelength transdermal fluorescence detection system was utilized to monitor MB-301 and MB-404 in the rat model of bowel injury. […] Following anaesthetization, the fluorescence detection system was affixed with medical adhesive to a depilated area on the back of each rat. Transdermal fluorescence monitoring was then initiated to detect baseline fluorescence prior to delivery of MB-301 and MB-404 by oral gavage, and was monitored continuously. The concentration of MB-301 as determined by transdermal fluorescence measurements remained low in both injured and control animals (FIG. 2, dashed lines) as this fluorophore is comparatively rapidly absorbed by the small intestine and subsequently cleared. […] Therefore, transdermal detection of MB-301 and MB-404 fluorescence can be used to provide a non-invasive, real-time indication of gut health.
as §3

Data set [6] concerns rat model of small bowel injury. Briefly: Ratio of MB-404 to MB-301 in urine (HPLC) after oral gavage, rat model of small bowel injury. Format: in vivo. Conditions: injured rats (indomethacin-induced bowel injury) compared to control rats. An excerpt: DSAT was mimicked using two fluorophores with similar molecular weights to mannitol and lactulose, MB-301 and MB-404 (see Table 2).
Furthermore, like both sugars used in the DSAT, MB-301 and MB-404 are not metabolized and are excreted by glomerular filtration, with neither (or negligible) tubular secretion nor reabsorption. To test the ability to distinguish between healthy and diseased gut, a rat model of small bowel injury was used with two injured and two control rats. The day after indomethacin-induced bowel injury, the rats were anaesthetized, a catheter was inserted for urine collection, and both fluorophores were delivered by oral gavage. Urine was collected prior to oral gavage and at a series of time points post-gavage. Concentrations of MB-301 and MB-404 in urine were determined using HPLC, and the ratio of their concentrations was plotted over time in FIG. 1.

Setting [7] is: Control Participants, 360 min post-administration.
Setting [8] is: Control Participants, 720 min post-administration.

Consider `OC[C@H]1O[C@@H](O[C@@H]2[C@@H](CO)OC(O)(CO)[C@H]2O)[C@H](O)[C@@H](O)[C@H]1O` (mixture of isomers) [lactulose, reference compound], for which the “percent of administered dose recovered in urine” value in data set [1] is given as “wide range”.
Turning to `Nc1nc(C(=O)N[C@H](CO)C(=O)O)c(N)nc1C(=O)N[C@H](CO)C(=O)O` [MB-102, 3,6-diamino-2,5-bis{N-[(1R)-1-carboxy-2-hydroxyethyl]carbamoyl}pyrazine], the “Percent of Administered Dose Recovered (urine)” value in data set [2] is on record as “higher”. Moreover, the “percent of administered dose recovered in urine” value in data set [1] is “wide range”. The urine excretion result in data set [1] (diseased participants with respect to controls, oral administration) is “increased”. Besides, the MB-102 urine recovery entry in data set [1] (patients in remission when the study was performed) is reported as “near normal values”. The “Plasma Concentration” value in data set [3] (setting [7]) was determined as 21.3 ng/mL; in data set [3] (setting [8]) it was 16.7 ng/mL. Moreover, the concentration at 360 min was 21.2 ng/mL in data set [3] (setting [7]) and 63.1 ng/mL in data set [3] (Crohn's Disease Participant, 360 min post-administration). Also, the concentration at 720 min in data set [3] (setting [8]) was 16.8 ng/mL; in data set [3] (Crohn's Disease Participant, 720 min post-administration) it was 26.5 ng/mL. Further, in data set [4] (5 healthy adults and 4 adults with Crohn's disease), the serious adverse events entry is “no serious adverse events”. Besides, in data set [4] (healthy adults and adults with Crohn's disease), the tolerability result was “well tolerated”.
Regarding `Nc1nc(C(=O)O)c(N)nc1C(=O)O` [MB-301, 3,6-diamino-2,5-pyrazine-dicarboxylic acid], the “concentration as determined by transdermal fluorescence measurements” value in data set [5] (control animals) and in data set [5] (injured animals) was “remained low” in each case.
Regarding `O=C(NCC(O)CO)c1nc(NC[C@H](O)CO)c(C(=O)NCC(O)CO)nc1NC[C@H](O)CO` (stereo partly drawn) [MB-404, N^2,N^5-bis(2,3-dihydroxypropyl)-3,6-bis[(S)-2,3-dihydroxypropylamino]pyrazine-2,5-dicarboxamide], the “ratio of MB-404 to MB-301 in urine” value in data set [6] was “higher”. The “concentration as determined by transdermal fluorescence measurements” value is “remained low” in data set [5] (control animals) and “increased over time” in data set [5] (injured animals).
